In PMC10304291, “THC-Reduced Cannabis sativa L.—How Does the Solvent Determine the Bioavailability of Cannabinoids Given Orally?” (Nutrients, 2023):
Read-outs that look alike come from different tables or passages of the source.

Key:
[1] = Whole-blood pharmacokinetics of CBD and THC after single oral dose of Cannabis sativa extract; settings: for CBD levels in whole blood: range of levels; for concentration at 0.5 h / concentration at 1 h / concentration at 2 h / concentration at 4 h / concentration at 6 h / concentration at 24 h / AUC(0-t) / Cmax / MRT / Tmax / CL / Vd: whole blood; for concentration at 0.5 h / concentration at 1 h / concentration at 2 h / concentration at 4 h / concentration at 6 h / concentration at 24 h: oral; for AUC(0-t): AUC0–24, whole blood
[2] = Brain pharmacokinetics of CBD and THC after single oral dose of Cannabis sativa extract; settings: for mean concentration over time: Table 7; for AUC(0-t): AUC0–24, brain
[3] = mice; oral CBD 120 mg/kg in Cremophor; cited from earlier work
[4] = 12 healthy volunteers; chocolate cookies with 0.57 mg/kg CBD + 0.28 mg/kg THC; after 1.5–3 h; cited from earlier work
[5] = rats; oral CBD 120 mg/kg in Cremophor; cited from earlier work
[6] = cited from earlier work
[7] = 24 volunteers, 0.078 mg/kg CBD + […] THC, cited from earlier work
[8] = male, Wistar, rat, 30 mg/kg, Mean Concentration ± SD, blood, Rapae oleum, single oral dose of extract 30 mg/kg
[9] = male, Wistar, rat, 30 mg/kg, Mean Concentration, blood, Cremophor, single oral dose of extract 30 mg/kg
[10] = male, Wistar, rat, 30 mg/kg, mean concentration over time, Blood/Cremophor, single oral dose of extract 30 mg/kg, Table 7
[11] = male, Wistar, rat, 30 mg/kg, mean concentration over time, Blood/Rapae Oleum, single oral dose of extract 30 mg/kg, Table 7
[12] = male, Wistar, rat, po, 30 mg/kg, Cremophor, single oral dose of extract 30 mg/kg
[13] = male, Wistar, rat, po, 30 mg/kg, Rapae oleum, single oral dose of extract 30 mg/kg
[14] = Cremophor, single oral dose of extract 30 mg/kg
[15] = Rapae oleum, single oral dose of extract 30 mg/kg
[16] = male, Wistar, rat, brain, po, 30 mg/kg, Cremophor, single oral dose of extract 30 mg/kg
[17] = male, Wistar, rat, brain, po, 30 mg/kg, Rapae oleum, single oral dose of extract 30 mg/kg
[18] = 1 h after gelatin capsules with extract

With `C=C(C)[C@@H]1CCC(C)=C[C@H]1c1c(O)cc(CCCCC)cc1O` [CBD, cannabidiol] the “CBD levels in whole blood” value ([1]; Cremophor) was 1.43 to 231.43 ng/mL, the concentration at 0.5 h [1, 8] was 26.9 ± 21.5 ng/g and the concentration at 1 h [1, 8] was 107 ± 51 ng/g. The concentration at 2 h [1, 8] was 334 ± 139 ng/g, the concentration at 4 h [1, 8] was 154 ± 146 ng/g and the concentration at 6 h [1, 8] was 37.6 ± 11.3 ng/g. The concentration at 24 h [1, 8] was 2.76 ± 2.12 ng/g, the concentration at 0.5 h [1, 9] was 120 ± 93.5 ng/g and the concentration at 1 h [1, 9] was 109 ± 35.4 ng/g. For the same compound, the concentration at 2 h [1, 9] was 46.5 ± 15.7 ng/g, the concentration at 4 h [1, 9] was 35.1 ± 4.71 ng/g and the concentration at 6 h [1, 9] was 31.4 ± 9.28 ng/g. It also gave a concentration at 24 h [1, 9] of 12.3 ± 18 ng/g, a concentration at 0.5 h [1, 10] of 120 ng/mL and a concentration at 1 h [1, 10] of 109 ng/mL. It also gave a concentration at 2 h [1, 10] of 46.5 ng/mL, a concentration at 4 h [1, 10] of 35.1 ng/mL and a concentration at 6 h [1, 10] of 31.4 ng/mL. It also gave a concentration at 24 h [1, 10] of 12.3 ng/mL, a concentration at 0.5 h [1, 11] of 26.9 ng/mL and a concentration at 1 h [1, 11] of 107 ng/mL. The concentration at 2 h [1, 11] was 334 ng/mL, the concentration at 4 h [1, 11] was 154 ng/mL and the concentration at 6 h [1, 11] was 37.6 ng/mL. The concentration at 24 h [1, 11] was 2.76 ng/mL, the AUC(0-t) [1, 12] was 988 ng·h/mL and the AUC(0-t) [1, 13] was 1290 ng·h/mL. The Cmax [1, 12] was 120 ng/mL, the Cmax [1, 13] was 334 ng/mL and the MRT [1, 12] was 12 h. For the same compound, the MRT [1, 13] was 4.03 h, the Tmax ([1]; male, Wistar, rat, po, 30 mg/kg, Tmax, Rapae oleum, single oral dose of extract 30 mg/kg) was 2 h and the “CBD levels in whole blood” value ([1]; oil (Rapae oleum)) was 1.06 to 588.03 ng/mL. For the same compound, the “time concentrations were detectable after administration” value ([1]; single oral dose of extract 30 mg/kg) was “up to 24 h”, the CL [1, 14] was 7.75 L/h and the Tmax [1, 14] was 0.5 h. For the same compound, the Vd [1, 14] was 69.66 L, the CL [1, 15] was 5.85 L/h and the Vd [1, 15] was 28.29 L. For the same compound, the “mean concentration over time” value ([2]; Brain/Cremophor, 0.5 h, single oral dose of extract 30 mg/kg) was 274.994, the “mean concentration over time” value ([2]; Brain/Cremophor, 1 h, single oral dose of extract 30 mg/kg) was 213.491 and the “mean concentration over time” value ([2]; Brain/Cremophor, 2 h, single oral dose of extract 30 mg/kg) was 81.1135. For the same compound, the “mean concentration over time” value ([2]; Brain/Cremophor, 4 h, single oral dose of extract 30 mg/kg) was 52.1185, the “mean concentration over time” value ([2]; Brain/Cremophor, 6 h, single oral dose of extract 30 mg/kg) was 57.7145 and the “mean concentration over time” value ([2]; Brain/Cremophor, 24 h, single oral dose of extract 30 mg/kg) was 3.604. The “mean concentration over time” value ([2]; Brain/Rapae oleum, 0.5 h, single oral dose of extract 30 mg/kg) was 23.327, the “mean concentration over time” value ([2]; Brain/Rapae oleum, 1 h, single oral dose of extract 30 mg/kg) was 65.391 and the “mean concentration over time” value ([2]; Brain/Rapae oleum, 2 h, single oral dose of extract 30 mg/kg) was 301.388. The “mean concentration over time” value ([2]; Brain/Rapae oleum, 4 h, single oral dose of extract 30 mg/kg) was 263.466, the “mean concentration over time” value ([2]; Brain/Rapae oleum, 6 h, single oral dose of extract 30 mg/kg) was 59.650 and the “mean concentration over time” value ([2]; Brain/Rapae oleum, 24 h, single oral dose of extract 30 mg/kg) was 9.797. It also gave a Kp ([2]; male, Wistar, rat, brain / whole blood, po, 30 mg/kg, AUCbrain:AUC whole blood (AUC0–24 ratio), Cremophor, single oral dose of extract 30 mg/kg) of 0.95, a Kp ([2]; male, Wistar, rat, brain / whole blood, po, 30 mg/kg, AUCbrain:AUC whole blood (AUC0–24 ratio), Rapae oleum, single oral dose of extract 30 mg/kg) of 1.54 and a concentration at 0.5 h ([2]; male, Wistar, rat, brain, oral, 30 mg/kg, Mean Concentration, Cremophor, 0.5 h, single oral dose of extract 30 mg/kg) of 275 ± 104 ng/g. The concentration at 1 h ([2]; male, Wistar, rat, brain, oral, 30 mg/kg, Mean Concentration, Cremophor, 1 h, single oral dose of extract 30 mg/kg) was 213 ± 66.1 ng/g, the concentration at 2 h ([2]; male, Wistar, rat, brain, oral, 30 mg/kg, Mean Concentration, Cremophor, 2 h, single oral dose of extract 30 mg/kg) was 81.1 ± 23.4 ng/g and the concentration at 4 h ([2]; male, Wistar, rat, brain, oral, 30 mg/kg, Mean Concentration, Cremophor, 4 h, single oral dose of extract 30 mg/kg) was 52.1 ± 12.2 ng/g. It also gave a concentration at 6 h ([2]; male, Wistar, rat, brain, oral, 30 mg/kg, Mean Concentration, Cremophor, 6 h, single oral dose of extract 30 mg/kg) of 57.7 ± 25.9 ng/g, a concentration at 24 h ([2]; male, Wistar, rat, brain, oral, 30 mg/kg, Mean Concentration, Cremophor, 24 h, single oral dose of extract 30 mg/kg) of 3.6 ± 0.493 ng/g and a Tmax ([2]; male, Wistar, rat, brain, po, 30 mg/kg) of 2 h. For the same compound, the AUC(0-t) [2, 16] was 943 ng·h/mL, the AUC(0-t) [2, 17] was 1990 ng·h/mL and the Cmax [2, 16] was 275 ng/g. It also gave a Cmax [2, 17] of 301 ng/g, an MRT [2, 16] of 6.19 h and an MRT [2, 17] of 7.76 h. For the same compound, the Kp ([2]; male, Wistar, rat, brain/whole blood, oral, 30 mg/kg, brain/whole-blood ratio, Cremophor, present study) was 2.29, the “brain peak CBD concentration” value [3] was 1.3 µg/g and the peak whole-blood concentration [3] was about 2 µg/mL. The whole-blood concentration [4] was “about 5 ng/mL”, the “brain peak CBD concentration” value [5] was 8.6 µg/g and the peak whole-blood concentration [5] was about 2 µg/mL. The “peak concentration in the blood” value ([6]; oral CBD 120 mg/kg in Cremophor, at 2 h) was 2 µg/mL, the “peak concentration in the blood” value ([6]; oral CBD 120 mg/kg in Solutol, at 6 h) was 3.2 µg/mL and the “levels in whole blood (average)” value [7, 18] was 0.93 ng/mL. The “levels in whole blood (range)” value [7, 18] was 0.3 to 2.6 ng/mL and the “time detectable after administration” value ([7]; gelatin capsules with extract) was 3 to 4 h.
